PubChem BioAssay AID1745844 (Carcinogenic Potency Database (CPDB), 2022)
Calls of active or inactive are those of the source. No rule for the calls is given here.

System: rodent lifetime carcinogenesis bioassay, tumor incidence TD50
Test: chronic cancer bioassays in animals – CPDB, compiled studies (AID 1745844)
Settings: rat, strain MRC, in drinking water, site: any site (literature study), lesion: several types, types named in the paper, dosed 75 weeks, study length 104 weeks

## O=NN1CCC[C@H]1C(=O)O
females
  TD50: 6.69 mg/kg/day (inactive)
males
  carcinogen call: negative (inactive)
